# According to patent publication US8946203B2, “Benzodioxane inhibitors of leukotriene production” (Boehringer Ingelheim International GmbH, priority 2012, dated 2015):
# Biological target: T1, human LTA4 hydrolase (Homo sapiens, UniProt P09960)
# T1 sequence (P09960 1-611): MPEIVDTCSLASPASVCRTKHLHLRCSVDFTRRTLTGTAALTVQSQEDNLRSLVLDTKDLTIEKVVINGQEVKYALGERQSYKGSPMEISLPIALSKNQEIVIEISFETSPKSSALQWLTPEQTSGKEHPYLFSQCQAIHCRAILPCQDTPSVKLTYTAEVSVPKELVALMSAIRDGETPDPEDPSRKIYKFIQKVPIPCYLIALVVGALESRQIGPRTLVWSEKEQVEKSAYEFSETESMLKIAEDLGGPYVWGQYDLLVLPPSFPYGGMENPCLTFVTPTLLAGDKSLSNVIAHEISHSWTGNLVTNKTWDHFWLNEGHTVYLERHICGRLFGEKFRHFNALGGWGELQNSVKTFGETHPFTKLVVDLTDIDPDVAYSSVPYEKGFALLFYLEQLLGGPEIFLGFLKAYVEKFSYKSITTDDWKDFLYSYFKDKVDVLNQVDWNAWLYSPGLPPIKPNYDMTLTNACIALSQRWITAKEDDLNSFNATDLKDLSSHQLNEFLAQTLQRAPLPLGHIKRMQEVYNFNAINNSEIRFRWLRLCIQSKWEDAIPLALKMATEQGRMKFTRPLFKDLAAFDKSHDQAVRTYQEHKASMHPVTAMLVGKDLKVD
# Test: LTA4H Enzyme assay (cleavage of Arg-AMC, fluorescence)
# Type: biochemical
# Conditions: LTA4H Enzyme 1 nM, Arg-AMC substrate 50 μM, room temperature 1 h, fluorescence; read-out: IC50 values of LTA4H Enzyme assay
# Method: The compounds of the invention are assessed for the ability to interact with human LTA4 hydrolase in an enzymatic assay that measures the ability of the enzyme to cleave the peptide bond of arginyl-aminomethylcoumarin (Arg-AMC). LTA4H Enzyme (1 nM final), Arg-AMC substrate (50 μM final), and compound are combined in a reaction buffer (50 mM Tris-HCl (pH 7.5), 100 mM KCl, 0.5% bovine serum albumin) at room temperature for 1 h. The formation of product is assessed by measuring the fluorescence of aminomethylcoumarin product (excitation wavelength 380 nm/emission wavelength 460 nm).
row,IC50 [nM],Compound
1,3.19,"COCCN(C)Cc1ccc(C2COc3ccccc3O2)cc1 (racemic) [Example 33, N-[4-(2,3-dihydro-1,4-benzodioxin-2-yl)benzyl]-2-methoxy-N-methylethanamine]"
2,1.89,"O[C@@H]1CCN(Cc2ccc(C3COc4ccccc4O3)cc2)C1 (mixture of isomers) [Example 34, (3R)-1-[4-(2,3-dihydro-1,4-benzodioxin-2-yl)benzyl]pyrrolidin-3-ol]"
3,0.26,"O=C1NC(=O)C2(CCN(Cc3ccc(C4COc5ccccc5O4)cc3)CC2)N1 (racemic) [Example 35, 8-[4-(2,3-dihydro-1,4-benzodioxin-2-yl)benzyl]-1,3,8-triazaspiro[4.5]decan-2,4-dione]"
4,4.45,"COC1CN(Cc2ccc(C3COc4ccccc4O3)cc2)C1 (racemic) [Example 36, 1-[4-(2,3-dihydro-1,4-benzodioxin-2-yl)benzyl]-3-methoxyazetidine]"
5,1.14,"CN(C)C(=O)CC1CCN(Cc2ccc(C3COc4ccccc4O3)cc2)CC1 (racemic) [Example 38, 2-{1-[4-(2,3-dihydro-1,4-benzodioxin-2-yl)benzyl]piperidin-4-yl}-N,N-dimethylacetamide]"
6,2.14,"CS(=O)(=O)C1CCN(Cc2ccc(C3COc4ccccc4O3)cc2)CC1 (racemic) [Example 39, 1-[4-(2,3-dihydro-1,4-benzodioxin-2-yl)benzyl]-4-(methylsulfonyl)piperidine]"
7,0.82,"c1ccc2c(c1)OCC(c1ccc(CN3CCCCCC3)cc1)O2 (racemic) [Example 40, 1-[4-(2,3-dihydro-1,4-benzodioxin-2-yl)benzyl]azepane]"
8,3.71,"c1ccc2c(c1)OCC(c1ccc(CNC3CCCC3)cc1)O2 (racemic) [Example 41, N-[4-(2,3-dihydro-1,4-benzodioxin-2-yl)benzyl]cyclopentanamine]"
9,0.69,"CN(CCc1ccccn1)Cc1ccc(C2COc3ccccc3O2)cc1 (racemic) [Example 42, N-[4-(2,3-dihydro-1,4-benzodioxin-2-yl)benzyl]-N-methyl-2-(pyridin-2-yl)ethanamine]"
10,4.42,"c1ccc2c(c1)OCC(c1ccc(CNCC3CC3)cc1)O2 (racemic) [Example 43, 1-cyclopropyl-N-[4-(2,3-dihydro-1,4-benzodioxin-2-yl)benzyl]methanamine]"
11,0.9,"CCN(CC)Cc1ccc(C2COc3ccccc3O2)cc1 (racemic) [Example 45, N-[4-(2,3-dihydro-1,4-benzodioxin-2-yl)benzyl]-N-ethylethanamine]"
12,24.8,"N#CC1CN(Cc2ccc(C3COc4ccccc4O3)cc2)C1 (racemic) [Example 46, 1-[4-(2,3-dihydro-1,4-benzodioxin-2-yl)benzyl]azetidine-3-carbonitrile]"
13,1.73,"COC1CCN(Cc2ccc(C3COc4ccccc4O3)cc2)C1 (racemic) [Example 47, 1-[4-(2,3-dihydro-1,4-benzodioxin-2-yl)benzyl]-3-methoxypyrrolidine]"
14,0.16,"CS(=O)(=O)NC1CCN(Cc2ccc(C3COc4ccccc4O3)cc2)CC1 (racemic) [Example 48, N-{1-[4-(2,3-dihydro-1,4-benzodioxin-2-yl)benzyl]piperidin-4-yl}methanesulfonamide]"
15,0.6,"O=C1CCCN1CC1CCN(Cc2ccc(C3COc4ccccc4O3)cc2)CC1 (racemic) [Example 50, 1-({1-[4-(2,3-dihydro-1,4-benzodioxin-2-yl)benzyl]piperidin-4-yl}methyl)pyrrolidin-2-one]"
16,0.82,"CN(C)C(=O)C1CCN(Cc2ccc(C3COc4ccccc4O3)cc2)CC1 (racemic) [Example 51, 1-[4-(2,3-dihydro-1,4-benzodioxin-2-yl)benzyl]-N,N-dimethylpiperidine-4-carboxamide]"
17,5.93,"c1cncc(CNCc2ccc(C3COc4ccccc4O3)cc2)c1 (racemic) [Example 54, 1-[4-(2,3-dihydro-1,4-benzodioxin-2-yl)phenyl]-N-(pyridin-3-ylmethyl)methanamine]"

row,IC50 [nM],Compound
1,3.63,"Cn1cnc(CNCc2ccc(C3COc4ccccc4O3)cc2)c1 (racemic) [Example 55, 1-[4-(2,3-dihydro-1,4-benzodioxin-2-yl)phenyl]-N-[(1-methyl-1H-imidazol-4-yl)methyl]methanamine]"
2,2.49,"O=C(O)C1CCCN(Cc2ccc(C3COc4ccccc4O3)cc2)C1 (racemic) [Example 113, 1-[4-(2,3-dihydro-1,4-benzodioxin-2-yl)benzyl]piperidine-3-carboxylic acid]"
3,0.77,"NC(=O)C1CCCN(Cc2ccc(C3COc4ccccc4O3)cc2)C1 (racemic) [Example 114, 1-[4-(2,3-dihydro-1,4-benzodioxin-2-yl)benzyl]piperidine-3-carboxamide]"
4,3.03,"F[C@H]1CCN(Cc2ccc(C3COc4ccccc4O3)cc2)C1 (mixture of isomers) [Example 115, (3S)-1-[4-(2,3-dihydro-1,4-benzodioxin-2-yl)benzyl]-3-fluoropyrrolidine]"
5,0.43,"OC1CCN(Cc2ccc([C@H]3COc4ccccc4O3)cc2)CC1 (single isomer, unassigned) [Example 192]"
6,5.35,"OC1CCN(Cc2ccc([C@@H]3COc4ccccc4O3)cc2)CC1 (single isomer, unassigned) [Example 193]"
7,0.15,"O=C1NCCC12CCN(Cc1ccc([C@H]3COc4ccccc4O3)cc1)CC2 (single isomer, unassigned) [Example 194]"
8,1.59,"O=C1NCCC12CCN(Cc1ccc([C@@H]3COc4ccccc4O3)cc1)CC2 (single isomer, unassigned) [Example 195]"
9,0.39,"c1ccc2c(c1)OC[C@H](c1ccc(CN3CCCC3)cc1)O2 (single isomer, unassigned) [Example 196]"
10,2.69,"c1ccc2c(c1)OC[C@@H](c1ccc(CN3CCCC3)cc1)O2 (single isomer, unassigned) [Example 197]"
11,2.28,"c1ccc2c(c1)OC[C@H](c1ccc(CN3CCOCC3)cc1)O2 (single isomer, unassigned) [Example 198]"
12,40.1,"c1ccc2c(c1)OC[C@@H](c1ccc(CN3CCOCC3)cc1)O2 (single isomer, unassigned) [Example 199]"
13,0.32,"CN(C)C(=O)C1CCN(Cc2ccc([C@H]3COc4ccccc4O3)cc2)CC1 [Example 8, 1-{4-[(2S)-2,3-dihydro-1,4-benzodioxin-2-yl]benzyl}-N,N-dimethylpiperidine-4-carboxamide]"
14,0.36,"CN(Cc1ccc([C@H]2COc3ccccc3O2)cc1)C1CCN(S(C)(=O)=O)CC1 [Example 13, N-{4-[(2S)-2,3-dihydro-1,4-benzodioxin-2-yl]benzyl}-N-methyl-1-(methylsulfonyl)piperidin-4-amine]"
15,0.73,"O=C(O)[C@@H]1CCCN(Cc2ccc([C@H]3COc4ccccc4O3)cc2)C1 [Example 19, (3R)-1-{4-[(2S)-2,3-dihydro-1,4-benzodioxin-2-yl]benzyl}piperidine-3-carboxylic acid]"
16,1.3,"O=C(O)[C@H]1CCCN(Cc2ccc([C@H]3COc4ccccc4O3)cc2)C1 [Example 20, (3S)-1-{4-[(2S)-2,3-dihydro-1,4-benzodioxin-2-yl]benzyl}piperidin-3-carboxylic acid]"
17,4.43,"OC(C1CCN(Cc2ccc([C@H]3COc4ccccc4O3)cc2)CC1)C(F)(F)F (stereo partly drawn) [Example 21, 1-(1-{4-[(2S)-2,3-dihydro-1,4-benzodioxin-2-yl]benzyl}piperidin-4-yl)-2,2,2-trifluoroethanol]"
